Reference: US6254899A, “Plant extract compositions, method of preparation, and pharmaceutical compositions containing them” (Laboratoires Remilea, priority 1999, dated 2001)

Columns and labels:
[1] = Test of anti-inflammatory activity: carragheenin-induced podal edema in rats; format: in vivo, rat (Ico male and female, Sprague Dawley)
Procedure: 1. Test of Anti-inflammatory Activity
Podal edema induced by carragheenin is used to evaulate the anti-inflammatory activity of the products tested.
The products were tested on Ico male rats and female rats (Sprague Dawley) of approximately 250 g provided by the company IFFA-CREDO.
The products tested were suspended in the hydroxypropyl methyl cellulose (HPMC).
A volume of 5 ml per kg of body weight was administered to the animals by oral route according to the protocol detained in the table below.
Batch Salix Tanacetum Copper Quantity Volume
no. alba parthenium gluconate of excipient administered
Batch / 900 mg / 15.0 ml) 5 ml/kg
The control animals received either the placebo (T+), i.e. solely the HPMC, or indomethacin (T-) by oral route.
The treatment took place two hours before the experiment. One hour after oral administration of the product to be tested, all the animals received 0.2 ml of a 2% solution of carragheenin (Satia) in a 0.9% solution of sodium chloride at by injection in the right back paw (T0).
The podal volume of each rat was measured using a plethysmometer. The podal edema of each animal was measured at times T0, T0 +60 minutes, T0 +120 minutes, T0 +240 minutes.
The results were expressed in average percentages of inflammation relative to the control values (T^+) before the treatment and at each of the measuring times as well as in the percentage reduction of the edema compared to a control before the treatment and against each of the measuring times.

[2] = Test of analgesic activity: phenyl benzoquinone (PBQ) induced abdominal cramps in mice; format: in vivo, mice (male); details: aspirin 100 mg/kg
Procedure: 50 male mice of 20-24 g supplied by the company IFFA-CREDO (France) were divided into 5 batches. The products studied were administered: by oral route thirty minutes before injection of phenyl benzoquinone (PBQ): (PBQ 20 mg+alcohol 5 ml+water qsp 100 ml). by intraperitoneal route at the rate of 0.20 ml per mouse.
The products to be tested were suspended in the excipient HPMC (hydroxypropyl cellulose methyl).
The animals were treated as below: […]
4. Tanacetum parthenium 150 10 […]
Aspirin was used as the reference analgesic product.
PBQ induces abdominal cramps indicating the intensity of the pain. The number of cramps per mouse was measured 1 hr and 2 hrs after administration of the product tested (30 mn and 1 hr 30 minutes after injection of PBQ).
The results were expressed as the percentage: […]
Number of cramps of the control batch - number of cramps of
Number of cramps of the control batch

**Q.** For `COc1ccc2c(c1)c(CC(=O)O)c(C)n2C(=O)c1ccc(Cl)cc1` [Indomethacin], which “% change of inflammation compared with the control (T+), 1 hour” value ([1]; 1 hour, "-" reduction, "+" increase in inflammation) is on record?
**A.** -16.74%

**Q.** What about the “% change of inflammation compared with the control (T+), 2 hours” value ([1]; 2 hours, "-" reduction, "+" increase in inflammation) of the same molecule?
**A.** -36.7%

**Q.** What about the “% change of inflammation compared with the control (T+), 4 hours” value ([1]; 4 hours, "-" reduction, "+" increase in inflammation) of the same molecule?
**A.** -50.38%

**Q.** What about the “% inflammation after 1 hour” value ([1]; oral, 5 ml/kg, 1 hour) of the same molecule?
**A.** 38.34%

**Q.** What about the “% inflammation after 2 hours” value ([1]; oral, 5 ml/kg, 2 hours) of the same molecule?
**A.** 51.85%

**Q.** And the “% inflammation after 4 hours” value ([1]; oral, 5 ml/kg, 4 hours)?
**A.** 71.38%

**Q.** Which results are given for `CC(=O)Oc1ccccc1C(=O)O` [aspirin]?
**A.** Reduction of number of abdominal cramps, 1 hr ([2]; 60 mins after administration, Salix alba 150 mg/kg): 33%; Reduction of number of abdominal cramps, 2 hrs ([2]; 120 mins after administration, Salix alba or Tanacetum parthenium 150 mg/kg): 55%
